Data taken from patent US20230295133A1, “PROCESS FOR PREPARING A COMPOUND USEFUL TO TREAT MYCOSES” (PULMOCIDE LIMITED, priority 2014, published 2023).
Converted amounts (≈) assume the structure as drawn.

Assays:
[1] = system: Aspergillus fumigatus NCPF2010; assay: Broth microdilution assay (modified EUCAST); type: cell-based; settings: Aspergillus fumigatus, NCPF2010; broth microdilution assay, n = 3; read-out: MIC75 against Aspergillus fumigatus isolate NCPF2010
Method in brief: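 Spores from 3-day Sabouraud cultures (working suspension 2 × 10^5 spores/mL) were added to an equal volume of RPMI-1640 (2 mM L-glutamine, 0.5% BSA, 2% glucose, 0.165 M MOPS, pH 7) containing compound, in quadruplicate. After 48 hr at 35 °C, OD530 gave percent inhibition. MIC50, MIC75 and MIC90 came from concentration-response curves.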

[2] = system: aspergillus fumigatus (ATCC 13073 [strain: NIH 5233]); assay: In vivo anti-fungal activity, prophylactic and therapeutic treatment of infected immunocompromised neutropenic mice; design: species or system A/J mice; settings: prophylactic treatment (days 0, 1, 2 and 3); 0.4 mg/mL
[3] = system: Chaectomium globosum ATCC44699; assay: Fungus panel screening, CLSI broth microdilution; type: cell-based
Description: Fungus panel screening was conducted by Eurofins Panlabs Inc. The MIC and MIC50 values of the test articles were determined following the guidelines of the Clinical and Laboratory Standards Institute, broth microdilution methods for yeast (CLSI M27-A2), (CLSI, 2002) and for filamentous fungi (CLSI M38-A), (CLSI, 2008).

[4] = system: aspergillus fumigatus (ATCC 13073 [strain: NIH 5233]); assay: Survival of severely immunosuppressed neutropenic infected mice, monotherapy and combination; type: in vivo, A/J mice; settings: Example 1 0.4 mg/mL (in); Posaconazole 1 mg/kg (po); once daily days 1-6
Description: On day 0, animals were infected intranasally with 35 µL of the spore suspension (1.67 × 10^8 spores/mL in physiological saline) of aspergillus fumigatus (ATCC 13073 [strain: NIH 5233]). Compound Example (I), prepared as a suspension in isotonic saline (0.4 mg/mL), was dosed once daily by an intra-nasal injection (35 µL/mouse) on days 1-6 after infection. Posaconazole (1 mg/kg) was given orally once daily on days 1-6 after infection. Body weight and survival were monitored daily up to day 7.

CC[C@@H]([C@H](C)O)n1ncn(-c2ccc(N3CCN(c4ccc(OC[C@@H]5CO[C@@](Cn6cncn6)(c6ccc(F)cc6F)C5)cc4)CC3)cc2)c1=O [Posaconazole, reference compound]
MIC [1]: 0.0153 µM (≈ 0.0107 µg/mL)
% Inhibition versus Infected Controls, GM in BALF [2]: 20%
% Inhibition versus Infected Controls, GM in serum [2]: 34%
% Inhibition versus Infected Controls, Lung Fungal Load [2]: 44%
MIC50 ([3]; 50% inhibition by visual inspection (CLSI)): 0.13 µg/mL (≈ 0.186 µM)
MIC ([3]; 100% inhibition by visual inspection (CLSI), read-out: MIC100): 0.25 µg/mL (≈ 0.357 µM)
Median survival [4]: 6.5 days
No. of survivors on day 7 [4]: 0/6
Survivors on day 7 (%) [4]: 0%
